{"source": "the METLIN SMRT retention time set (Domingo-Almenara et al. 2019)", "data": [{"assay": "gradient 5% acetonitrile 3 min, to 50% in 2 min, to 85% in 15 min, held 3 min, 100 µL/min", "settings": "column: Zorbax Extend-C18 2.1 x 50 mm; eluents: water / acetonitrile, 0.1% formic acid", "how_it_was_run": "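Using water and acetonitrile that each contained 0.1% formic acid, mixtures of ~100 pure standards were separated at 100 μL/min on a Zorbax Extend-C18 column (2.1 × 50 mm, 1.8 μm). The HPLC fed a quadrupole time-of-flight mass spectrometer working in positive and negative ionization mode, with dead and dwell volumes of 40 μL and 900 μL. Data were acquired over 3 months. Retention time was read from computationally picked adduct peaks after manual inspection of each.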", "units": {"RP-LC retention time": "s"}, "values": [{"compound": "Cc1ccc(-c2nc(NC(=O)c3cc(C)on3)sc2C)cc1", "RP-LC retention time": 1090}, {"compound": "CC1CN=C2C=C(N3CCN(S(=O)(=O)Cc4cccc(Cl)c4)CC3)N=CN21", "note": "(stereo not given)", "RP-LC retention time": 627}, {"compound": "CCOc1ccc(-c2cc3c(=O)n(Cc4nc(-c5ccc(F)c(Cl)c5)no4)ncn3n2)cc1", "RP-LC retention time": 982}, {"compound": "Cn1ccc2cc(S(=O)(=O)N3CCCC(C(=O)NC4CCN(Cc5ccccc5)CC4)C3)ccc21", "note": "(stereo not given)", "RP-LC retention time": 685}, {"compound": "CCOC(=O)c1nc(N2CCN(c3ccccc3)CC2)c2ccccc2n1", "RP-LC retention time": 893}, {"compound": "CCN(c1ccccc1)S(=O)(=O)c1ccc(C(=O)Nc2cc(C)no2)cc1", "RP-LC retention time": 882}, {"compound": "CN1C(=O)c2cccn2CC1CNS(=O)(=O)c1ccccc1", "note": "(stereo not given)", "RP-LC retention time": 668}, {"compound": "COc1ccc(Cn2nccc2NC(=O)COc2ccc(Cl)cc2)cc1", "RP-LC retention time": 882}, {"compound": "O=C(Cn1cnc2nc(N3CCCC(C(=O)NC4CC4)C3)sc2c1=O)Nc1ccc2c(c1)OCO2", "note": "(stereo not given)", "RP-LC retention time": 659}, {"compound": "CC(C)n1cnc2cc(CNC(=O)c3ccc4c(c3)OCO4)ccc21", "RP-LC retention time": 624}, {"compound": "CNC(=O)CCc1nc2ccccc2n(CC(=O)NC(C)CCc2ccccc2)c1=O", "note": "(stereo not given)", "RP-LC retention time": 728}, {"compound": "Cc1[nH]c(C(=O)N2CCC(CC(=O)NCc3ccc4c(c3)OCO4)CC2)c(C)c1C(=O)OC(C)C", "RP-LC retention time": 797}, {"compound": "O=S(=O)(Nc1cccc(-c2cn3ccccc3n2)c1)c1ccc(Br)cc1", "RP-LC retention time": 673}, {"compound": "CCCN(CC1CCOC1)C(=O)Nc1cccc(Cl)c1F", "note": "(stereo not given)", "RP-LC retention time": 853}, {"compound": "COc1ccc(OC)c(NC(=O)N2CCC3(CC2)NC(=O)c2ccccc2O3)c1", "RP-LC retention time": 740}, {"compound": "CC(=O)Nc1ccc(C2(C(=O)N3CCCCCC3)CCC2)cc1", "RP-LC retention time": 769}, {"compound": "CCN(CC)C(=O)Cn1c(C(F)(F)F)nc2cc3c(cc21)OCCO3", "RP-LC retention time": 811}, {"compound": "NS(=O)(=O)c1ccc(CCNC(=O)c2cccc(-n3cnnn3)c2)cc1", "RP-LC retention time": 617}, {"compound": "COCCN1CC2(CCN(S(=O)(=O)c3ccc(C(C)C)cc3)CC2)C1c1ccccc1", "note": "(stereo not given)", "RP-LC retention time": 776}, {"compound": "O=C(CSC1CCc2ccccc2NC1=O)Nc1cccc(Br)c1", "note": "(stereo not given)", "RP-LC retention time": 872}, {"compound": "Fc1ccc(-c2nnc(Cc3nc(-c4ccc(Cl)cc4)no3)o2)cc1", "RP-LC retention time": 1080}, {"compound": "CCCC(=O)N1CCc2c([nH]c3ccccc23)C1c1ccccc1", "note": "(stereo not given)", "RP-LC retention time": 1080}, {"compound": "O=C(NCC(c1cccnc1)N1CCc2ccccc21)C(=O)Nc1ccc2c(c1)OCO2", "note": "(stereo not given)", "RP-LC retention time": 734}, {"compound": "CCCNC(=O)C1CCCN(c2ccc(SCC(=O)Nc3ccccc3OCC)nn2)C1", "note": "(stereo not given)", "RP-LC retention time": 736}, {"compound": "CCN1CCN(CCNC(=O)c2cc(-c3ccc(C)cc3)cn2C)CC1", "RP-LC retention time": 626}, {"compound": "COc1ccc(S(=O)(=O)N2CCC(c3ccncc3)CC2)cc1Cl", "RP-LC retention time": 667}, {"compound": "Cc1cc(C)n(CCC(=O)NC2CCN(c3ccc(=O)[nH]n3)C2)n1", "note": "(stereo not given)", "RP-LC retention time": 579}, {"compound": "O=C(c1ccncc1)N1CCN(c2cc(-c3cccs3)[nH]n2)CC1", "RP-LC retention time": 619}, {"compound": "Cc1nnsc1C(=O)N1CCC(C(=O)NCC(F)(F)F)CC1", "RP-LC retention time": 614}, {"compound": "Cc1nc2cc(-c3noc(COc4ccccc4C)n3)ccc2o1", "RP-LC retention time": 1100}, {"compound": "COc1ccc(N2CC(C(=O)NCC(=O)N3CCCc4ccccc43)CC2=O)cc1", "note": "(stereo not given)", "RP-LC retention time": 724}, {"compound": "Cc1nc(C)c(-c2ccc(SCC(=O)Nc3ccc4c(c3)OCCO4)nn2)s1", "RP-LC retention time": 690}, {"compound": "COc1cccc2oc(-c3ccccc3)cc(=O)c12", "RP-LC retention time": 900}, {"compound": "Cc1noc(C)c1CC(=O)NCc1cccnc1Oc1ccccc1", "RP-LC retention time": 734}, {"compound": "CCN(CC)CCCNC(=O)c1cn(C)nc1S(=O)(=O)N1CCN(c2ccc(Cl)cc2)CC1", "RP-LC retention time": 729}, {"compound": "Nc1cc(C2CCN(C(=O)c3ccccc3F)CC2)no1", "RP-LC retention time": 648}, {"compound": "CC(C)CCNC(=O)C1CCN(S(C)(=O)=O)c2cc(Cl)ccc2O1", "note": "(stereo not given)", "RP-LC retention time": 923}, {"compound": "CCOc1ccc(C(C)NC(=O)c2cc(NC(C)=O)cc3nc(C)ccc23)cc1", "note": "(stereo not given)", "RP-LC retention time": 649}, {"compound": "CCN1C(=O)COc2ccc(-c3nc(NC(=O)c4cccnc4)sc3C)cc21", "RP-LC retention time": 784}, {"compound": "N#Cc1ccc(NC(=O)C2CCN(S(=O)(=O)c3cc(C(=O)N4CCCC4)cs3)CC2)cc1", "RP-LC retention time": 792}, {"compound": "O=c1n(Cc2cccc(Cl)c2)nc2ccc(S(=O)(=O)N3CCCC3)cn12", "RP-LC retention time": 919}, {"compound": "Cc1ccc2c(Nc3ccc(C)c(F)c3)c(C(=O)N3CCOCC3)cnc2n1", "RP-LC retention time": 599}, {"compound": "O=C(c1cc2ccccc2o1)N1CCN(Cc2ccsc2)CC1", "RP-LC retention time": 578}, {"compound": "NC(=O)/C(=C\\c1ccncc1)c1cccc2ccccc12", "RP-LC retention time": 647}, {"compound": "Cc1ccc(C)c(NC(=O)CSc2ccc(N3CCCC(C(=O)NC4CC4)C3)nn2)c1", "note": "(stereo not given)", "RP-LC retention time": 681}, {"compound": "O=C(Nc1cc(F)cc(F)c1)NC1CCN(c2ccccc2)C1=O", "note": "(stereo not given)", "RP-LC retention time": 851}, {"compound": "CCOC(=O)C1CCN(C(=O)Cn2c(=O)c3nnc(C)n3c3ncccc32)CC1", "RP-LC retention time": 780}, {"compound": "O=C(Cn1cccc(-c2nc(-c3ccc(Br)cc3)no2)c1=O)N1CCCc2ccccc21", "RP-LC retention time": 1070}, {"compound": "Cc1ccc(Oc2nccnc2N2CCCC(C(=O)Nc3ccc(Br)c(C)c3)C2)cc1", "note": "(stereo not given)", "RP-LC retention time": 1290}, {"compound": "CC(=O)Nc1ccc2c(c1)CN(C(=O)c1c(F)cccc1Cl)C(C(=O)N(C)C)C2", "note": "(stereo not given)", "RP-LC retention time": 900}, {"compound": "COc1ccc(NC(=O)Cn2c(C)cc(-c3nnc(-c4ccccc4)o3)c2C)cc1F", "RP-LC retention time": 943}, {"compound": "COc1cc(-c2noc(Cc3nnc(-c4ccc(C)c(C)c4)o3)n2)cc(OC)c1OC", "RP-LC retention time": 1010}, {"compound": "O=C(C1CCN(c2cnc3nccnc3c2)CC1)N1CCN(c2ccccc2F)CC1", "RP-LC retention time": 747}, {"compound": "O=S(=O)(c1cccs1)N1CCCCC1c1nncn1CC1CC1", "note": "(stereo not given)", "RP-LC retention time": 752}, {"compound": "Cc1ccc(C)c(N2CCN(C(=O)Cn3cnc4nc5c(cc4c3=O)CCCC5)CC2)c1", "RP-LC retention time": 893}, {"compound": "Cc1nc2ccc(Cl)cn2c(=O)c1NC(=O)c1ccc([N+](=O)[O-])cc1Cl", "RP-LC retention time": 668}, {"compound": "COc1ccc(-c2nc(C)cc(C)c2CNS(=O)(=O)c2cccc(C)c2)cc1", "RP-LC retention time": 668}, {"compound": "CCOCCCNS(=O)(=O)c1cc(-c2cc(C)[nH]n2)sc1C", "RP-LC retention time": 720}, {"compound": "CCOc1ccc(-c2nc(-c3ccc4oc(C)nc4c3)no2)cc1OCC", "RP-LC retention time": 1170}, {"compound": "COc1cc(Nc2c(C(=O)N3CCCCC3C)cnc3nc(C)ccc23)cc(OC)c1", "note": "(stereo not given)", "RP-LC retention time": 649}, {"compound": "CCn1cnc(S(=O)(=O)N2CCCC(C(=O)Nc3cc(C)cc(C)c3)C2)c1", "note": "(stereo not given)", "RP-LC retention time": 803}, {"compound": "Brc1cn2c(Nc3ccc4c(c3)OCO4)c(-c3ccccc3)nc2cn1", "RP-LC retention time": 940}, {"compound": "Cc1cccc(OCc2nc(-c3ccc4ncn(C(C)C)c4c3)no2)c1", "RP-LC retention time": 839}, {"compound": "Cn1nccc1C(=O)Nc1c(-c2ccccc2)nc2sc(N3CCCCC3)nn12", "RP-LC retention time": 678}, {"compound": "COc1ccc(C(=O)N2CCCCC2c2nncn2C)cn1", "note": "(stereo not given)", "RP-LC retention time": 603}, {"compound": "Cn1c(N2CCC(C(=O)N3CCN(c4cccc(C(F)(F)F)c4)CC3)CC2)cc(=O)n(C)c1=O", "RP-LC retention time": 814}, {"compound": "COc1ccc(OC)c(NC(=O)NCc2cccn2Cc2ccccc2)c1", "RP-LC retention time": 927}, {"compound": "Cc1cccc(C)c1NC(=O)CN1CCCC1=O", "RP-LC retention time": 697}, {"compound": "CCN1C(=O)c2cccnc2Sc2cc(NC(=O)Cc3ccccc3F)ccc21", "RP-LC retention time": 826}, {"compound": "Cc1ccc(Cn2nc3ccc(S(=O)(=O)N4CCSCC4)cn3c2=O)cc1C", "RP-LC retention time": 1000}, {"compound": "Cc1cccc(NC(=O)Cn2nc(N3CCCC3)c3ccccc3c2=O)c1C", "RP-LC retention time": 927}, {"compound": "O=C(COc1ccccc1)N1CC(F)(F)C[C@H]1c1nnc(C2CC2)o1", "RP-LC retention time": 768}, {"compound": "COCCNC(=O)Cn1c(C(F)(F)F)nc2cc3c(cc21)OCCO3", "RP-LC retention time": 641}, {"compound": "COCc1noc([C@@H]2CC(F)(F)CN2C(=O)C2CCC2)n1", "RP-LC retention time": 746}, {"compound": "O=S(=O)(Cc1ccccc1F)N1CCC[C@H]1c1nc(-c2ccc(F)cc2)n[nH]1", "RP-LC retention time": 837}, {"compound": "Cc1cccc(Sc2nccnc2N2CCCC(C(=O)N3CCN(c4ccccn4)CC3)C2)c1", "note": "(stereo not given)", "RP-LC retention time": 761}, {"compound": "Cc1ccc(NC(=O)N2CCCC(C)(C(=O)NCc3ccccc3C)C2)cc1Cl", "note": "(stereo not given)", "RP-LC retention time": 1080}, {"compound": "CSc1ncccc1C(=O)NCc1ccc2c(c1)ncn2C(C)C", "RP-LC retention time": 585}, {"compound": "COCCNC(=O)CC1CCN(C(=O)c2[nH]c(C)cc2C)CC1", "RP-LC retention time": 631}, {"compound": "CCOCCCNC(=O)c1ccc2c(c1)NC(=O)C1CCCCN21", "note": "(stereo not given)", "RP-LC retention time": 686}, {"compound": "COc1ccc(OC)c(-c2cn3ccn(-c4cccc(Cl)c4C)c(=O)c3n2)c1", "RP-LC retention time": 924}, {"compound": "Cc1nc2nc(-c3ccccc3)nn2c(Sc2ccccc2N)c1C", "RP-LC retention time": 710}, {"compound": "Cc1nnc(N2CCC(C(=O)NCC3CCCO3)CC2)c2nn(-c3ccccc3)c(C)c12", "note": "(stereo not given)", "RP-LC retention time": 632}, {"compound": "CC1Oc2ccc(-c3csc(NC(=O)CCc4ccccc4)n3)cc2N(C)C1=O", "note": "(stereo not given)", "RP-LC retention time": 1010}, {"compound": "COc1cccc(C2Cn3nnc(-c4nc(-c5ccsc5)no4)c3CO2)c1", "note": "(stereo not given)", "RP-LC retention time": 1070}, {"compound": "COc1ccc(C(=O)N2CCc3ccc(C(=O)NCc4ccc(C)o4)cc32)cc1", "RP-LC retention time": 865}, {"compound": "Cc1c(Cl)cccc1NC(=O)C(=O)NCC1(c2ccc(F)cc2)CC1", "RP-LC retention time": 1110}, {"compound": "COc1ccc(-c2nc3cnccn3c2NCCC(=O)NC(C)C)cc1", "RP-LC retention time": 609}, {"compound": "NCCNS(=O)(=O)c1cccc2c(Cl)cccc12", "RP-LC retention time": 701}, {"compound": "Cc1ccc(Cl)cc1NS(=O)(=O)c1ccc(-c2c(C)noc2C)cc1", "RP-LC retention time": 1010}]}]}
